9 molecules from ChEMBL document CHEMBL3137667, “[Drug-induced liver injury; fourteenth updated edition of the bibliographic database of liver injuries and related drugs]” (Gastroenterol Clin Biol, 2004) can be followed below.

Data set [1] in a line: Highest frequency of moderate liver toxicity observed during clinical trials, expressed as a percentage. [column '% BIOL' in source]. The following applies: human.
Data set [2] in a line: Highest frequency of acute liver toxicity observed during clinical trials, expressed as a percentage. [column '% AIGUE' in source]. The following applies: human.
A short description of data set [3]: Presence of at least one case with successful reintroduction. [column 'REINT' in source]. The settings on record: human.
Data set [4] in a line: Comments (NB not yet translated). [column 'COMMENTAIRES' in source]. The following applies: human.
Data set [5] is described as follows: Times to onset, minimal and maximal, observed in the indexed observations. [column 'DELAI' in source]. The settings on record: human.
For data set [6] the following is noted: human, serum.
For data set [7] the following is noted: human, serum. This is another data set of the same source.
The conditions of data set [8]: human.
For data set [9] the following is noted: human. This is another data set of the same source.
For data set [10] the following is noted: human. The source holds these as a separate data set.
The conditions of data set [11]: human, serum, 4383 h.
For data set [12] the following is noted: human. The source holds these as a separate data set.
For data set [13] the following is noted: human. This is another data set of the same source.
For data set [14] the following is noted: human. The source holds these as a separate data set.
For data set [15] the following is noted: human. This is another data set of the same source.
For data set [16] the following is noted: human. This is another data set of the same source.
For data set [17] the following is noted: human. The source holds these as a separate data set.
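For Hepatotoxicity (association with vascular disease) in this document: count of indexed literature references reporting vascular liver injury in humans, e.g. peliosis hepatitis, hepatic veno-occlusive disease or Budd-Chiari syndrome.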
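For Hepatotoxicity (benign tumour) in this document: value is a count of indexed literature references citing a benign tumour confirmed by histopathology.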
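For Hepatotoxicity (choleostasis) in this document: human cholestatic liver injury, shown by histopathology or by peak ALT or AST elevation over alkaline phosphatase ratio below 2, value counts indexed literature reports.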
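For Hepatotoxicity (chronic liver disease) in this document: chronic liver injury confirmed by histopathology or persistently raised serum aminotransferase activity beyond 6 months, value given as the count of indexed literature references.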
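For Hepatotoxicity (cirrhosis) in this document: value is a count of indexed literature references reporting cirrhosis confirmed by histopathology.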
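For Hepatotoxicity (cytolytic) in this document: human cytolytic liver injury, shown by histopathology or by a ratio above 5 of peak ALT or AST elevation to alkaline phosphatase elevation, value counts indexed references.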
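For Hepatotoxicity (granulomatous hepatitis) in this document: value is a count of indexed literature references reporting granulomatous liver disease confirmed by histopathology.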
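For Hepatotoxicity (malignant tumour) in this document: malignant tumour confirmed by histopathology, value gives the count of indexed literature references reporting it.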
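For Hepatotoxicity (severe hepatitis) in this document: human clinical data: severe hepatitis, meaning potentially life-threatening liver failure or clinically observed cases, the value counts how many indexed literature references report it.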
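For Hepatotoxicity (steatosis) in this document: steatosis confirmed by histopathology, value is the count of indexed references.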

With `CCOC(=O)/C=C(C)/C=C/C=C(C)/C=C/c1c(C)cc(OC)c(C)c1C` [ETRETINATE], the “Hepatotoxicity (moderate)” value was found to be 33% in [1] and 31 in data set [6]. The “Hepatotoxicity (acute)” value came out at 1.5% in data set [2] and 20 in data set [7]. Further, the “Hepatotoxicity (successful reintroduction)” value in [3] is listed as “yes”. Also, the “Hepatotoxicity (comment)” value in data set [4] is reported as “I/METHOTREXATE CHOLANGITE”. In addition, the “Hepatotoxicity (time to onset)” value in data set [5] came out at 1 week - 1 year. Moreover, the “Hepatotoxicity (cytolytic)” value in [8] is listed as 12. The “Hepatotoxicity (choleostasis)” value in data set [9] is 6. Besides, the “Hepatotoxicity (severe hepatitis)” value in data set [10] is reported as 2. Besides, the “Hepatotoxicity (chronic liver disease)” value in data set [11] came to 7. Also, the “Hepatotoxicity (cirrhosis)” value in [12] is listed as 1. Further, in data set [13], the “Hepatotoxicity (granulomatous hepatitis)” value is 1. Further, the “Hepatotoxicity (association with vascular disease)” value in data set [14] is given as 0. The “Hepatotoxicity (steatosis)” value in data set [15] was found to be 5. Besides, the “Hepatotoxicity (malignant tumour)” value in data set [16] is 0. Moreover, the “Hepatotoxicity (benign tumour)” value in data set [17] is 0.
In the case of `CC(C(=O)O)c1ccc(C(=O)c2ccccc2)s1` (stereo not drawn) [TIAPROFENIC ACID], the figures for the “Hepatotoxicity (moderate)” value in [1] and in data set [6] were 3.8% and 1, respectively. The “Hepatotoxicity (acute)” value in [2] came to 0%; in [7] it was 3. Also, in data set [3], the “Hepatotoxicity (successful reintroduction)” value was “yes”. Also, the “Hepatotoxicity (comment)” value in data set [4] is on record as “RC/DICLOFENAC”. In addition, the “Hepatotoxicity (time to onset)” value in data set [5] is 3 weeks - 2 months. Also, the “Hepatotoxicity (cytolytic)” value in data set [8] was determined as 2. Further, the “Hepatotoxicity (choleostasis)” value in data set [9] was 2. Moreover, the “Hepatotoxicity (severe hepatitis)” value in data set [10] was found to be 0. Also, in data set [11], the “Hepatotoxicity (chronic liver disease)” value was 0. Also, the “Hepatotoxicity (cirrhosis)” value in data set [12] came out at 0. Further, in data set [13], the “Hepatotoxicity (granulomatous hepatitis)” value was determined as 0. In addition, the “Hepatotoxicity (association with vascular disease)” value in [14] is listed as 0. The “Hepatotoxicity (steatosis)” value in data set [15] was determined as 0. The “Hepatotoxicity (malignant tumour)” value in data set [16] came out at 0. The “Hepatotoxicity (benign tumour)” value in data set [17] came to 0.
With `CC(=O)CC(c1ccccc1)c1c(O)c2ccccc2oc1=O` (stereo not drawn) [WARFARIN], the “Hepatotoxicity (moderate)” value in data set [1] is listed as 0%; in data set [6], 2. The “Hepatotoxicity (acute)” value in data set [2] was determined as 0%; in [7], 6. In addition, in [3], the “Hepatotoxicity (successful reintroduction)” value is reported as “yes”. Further, the “Hepatotoxicity (comment)” value in [4] is listed as “RC/PHENPROCOUMON RUPTURE_HEPATIQUE #S.REYE”. Further, the “Hepatotoxicity (time to onset)” value in data set [5] was found to be 1 week - 2.5 years. In addition, the “Hepatotoxicity (cytolytic)” value in [8] is reported as 0. Further, the “Hepatotoxicity (choleostasis)” value in data set [9] was found to be 5. The “Hepatotoxicity (severe hepatitis)” value in [10] amounted to 0. In data set [11], the “Hepatotoxicity (chronic liver disease)” value is listed as 0. Besides, the “Hepatotoxicity (cirrhosis)” value in data set [12] turned out to be 0. In [13], the “Hepatotoxicity (granulomatous hepatitis)” value is reported as 0. In addition, the “Hepatotoxicity (association with vascular disease)” value in data set [14] was determined as 0. In [15], the “Hepatotoxicity (steatosis)” value was found to be 0. Further, in [16], the “Hepatotoxicity (malignant tumour)” value was found to be 0. For the same molecule, in data set [17], the “Hepatotoxicity (benign tumour)” value turned out to be 0.
On to `c1ccc([C@H]2CN3CCSC3=N2)cc1` [LEVAMISOLE], for which the “Hepatotoxicity (moderate)” value in data set [1] (Liver) is 61.2%; in [6], 11. Moreover, the “Hepatotoxicity (acute)” value is reported as 0% in [2] (Liver) and 0 in data set [7]. In data set [3], the “Hepatotoxicity (successful reintroduction)” value is “yes”. The “Hepatotoxicity (comment)” value in [4] is “I/FLUOROURACIL”. Moreover, the “Hepatotoxicity (time to onset)” value in [5] stood at 1 month - 1 year. Besides, the “Hepatotoxicity (cytolytic)” value in data set [8] (Liver) stood at 0. In data set [9] (Liver), the “Hepatotoxicity (choleostasis)” value is 0. Besides, the “Hepatotoxicity (severe hepatitis)” value in data set [10] (Liver) amounted to 0. Besides, the “Hepatotoxicity (chronic liver disease)” value in [11] was 0. For the same molecule, the “Hepatotoxicity (cirrhosis)” value in data set [12] is 0. Also, the “Hepatotoxicity (granulomatous hepatitis)” value in data set [13] (Liver) worked out at 0. In addition, in data set [14], the “Hepatotoxicity (association with vascular disease)” value is 0. In addition, the “Hepatotoxicity (steatosis)” value in data set [15] stood at 6. In addition, the “Hepatotoxicity (malignant tumour)” value in [16] amounted to 0. In addition, the “Hepatotoxicity (benign tumour)” value in data set [17] was 0.
Take `CC(CCc1ccccc1)NCC(O)c1ccc(O)c(C(N)=O)c1` (stereo not drawn) [LABETALOL]: the “Hepatotoxicity (moderate)” value in data set [1] amounted to 20.5%; in data set [6] it was 5. The “Hepatotoxicity (acute)” value in data set [2] came to 0.9%; in data set [7], 6. In addition, the “Hepatotoxicity (successful reintroduction)” value in data set [3] was “yes”. In addition, in [4], the “Hepatotoxicity (comment)” value was “AC_ANTI-N”. In addition, the “Hepatotoxicity (time to onset)” value in [5] is 3 weeks - 6 months. For the same molecule, in [8], the “Hepatotoxicity (cytolytic)” value is 6. Also, the “Hepatotoxicity (choleostasis)” value in [9] is recorded as 0. Moreover, the “Hepatotoxicity (severe hepatitis)” value in [10] came out at 4. Besides, in data set [11], the “Hepatotoxicity (chronic liver disease)” value was 0. Also, in data set [12], the “Hepatotoxicity (cirrhosis)” value came to 0. Further, in data set [13], the “Hepatotoxicity (granulomatous hepatitis)” value is given as 0. Further, in data set [14], the “Hepatotoxicity (association with vascular disease)” value is reported as 0. For the same molecule, the “Hepatotoxicity (steatosis)” value in [15] stood at 0. The “Hepatotoxicity (malignant tumour)” value in data set [16] is 0. Further, the “Hepatotoxicity (benign tumour)” value in data set [17] is recorded as 0.
As for `CC(=O)CC(c1ccc([N+](=O)[O-])cc1)c1c(O)c2ccccc2oc1=O` (stereo not drawn) [ACENOCOUMAROL], the “Hepatotoxicity (moderate)” value came to 0% in [1] and 2 in [6]. Further, the “Hepatotoxicity (acute)” value came out at 0% in [2] and 8 in data set [7]. For the same molecule, the “Hepatotoxicity (successful reintroduction)” value in [3] is given as “yes”. For the same molecule, the “Hepatotoxicity (comment)” value in data set [4] was “RC/PHENPROCOUMON CHOLESTASE_PROLONGEE”. Also, the “Hepatotoxicity (time to onset)” value in data set [5] is 2 days - 5 years. In addition, the “Hepatotoxicity (cytolytic)” value in [8] came out at 3. Moreover, the “Hepatotoxicity (choleostasis)” value in data set [9] came out at 6. In addition, the “Hepatotoxicity (severe hepatitis)” value in data set [10] is 0. For the same molecule, the “Hepatotoxicity (chronic liver disease)” value in data set [11] turned out to be 1. Further, in data set [12], the “Hepatotoxicity (cirrhosis)” value is listed as 0. The “Hepatotoxicity (granulomatous hepatitis)” value in data set [13] turned out to be 0. Also, the “Hepatotoxicity (association with vascular disease)” value in data set [14] is 0. In addition, the “Hepatotoxicity (steatosis)” value in data set [15] was 0. Further, in data set [16], the “Hepatotoxicity (malignant tumour)” value came to 0. Besides, the “Hepatotoxicity (benign tumour)” value in data set [17] is recorded as 0.
Take `CCN1CCN(C(=O)N[C@@H](C(=O)N[C@@H]2C(=O)N3[C@@H]2SC(C)(C)[C@@H]3C(=O)O)c2ccccc2)C(=O)C1=O` [PIPERACILLIN]: the results for the “Hepatotoxicity (moderate)” value in [1] and in data set [6] were 25.6% and 14, respectively. Further, the “Hepatotoxicity (acute)” value in [2] was 0.2%; in data set [7], 4. For the same molecule, the “Hepatotoxicity (successful reintroduction)” value in [3] is reported as “yes”. Also, the “Hepatotoxicity (comment)” value in data set [4] was “CHOLANGITE”. Besides, the “Hepatotoxicity (time to onset)” value in data set [5] is recorded as 2 weeks. In addition, the “Hepatotoxicity (cytolytic)” value in data set [8] is listed as 1. The “Hepatotoxicity (choleostasis)” value in data set [9] came to 3. In [10], the “Hepatotoxicity (severe hepatitis)” value was 0. The “Hepatotoxicity (chronic liver disease)” value in data set [11] amounted to 0. Further, the “Hepatotoxicity (cirrhosis)” value in [12] was determined as 0. The “Hepatotoxicity (granulomatous hepatitis)” value in [13] is listed as 0. In addition, the “Hepatotoxicity (association with vascular disease)” value in [14] is 0. In data set [15], the “Hepatotoxicity (steatosis)” value was 0. Further, in [16], the “Hepatotoxicity (malignant tumour)” value is 0. The “Hepatotoxicity (benign tumour)” value in [17] stood at 0.
Consider `Cc1ncc(CSSCc2cnc(C)c(O)c2CO)c(CO)c1O` [PYRITINOL], for which the “Hepatotoxicity (moderate)” value in data set [1] amounted to 1.4%; in [6], 1. Moreover, the “Hepatotoxicity (acute)” value turned out to be 0% in data set [2] and 6 in data set [7]. For the same molecule, the “Hepatotoxicity (successful reintroduction)” value in [3] was “yes”. The “Hepatotoxicity (comment)” value in data set [4] is “CHOLESTASE_PROLONGEE”. For the same molecule, the “Hepatotoxicity (time to onset)” value in data set [5] is reported as 1 day - 2 months. The “Hepatotoxicity (cytolytic)” value in [8] amounted to 1. For the same molecule, in data set [9], the “Hepatotoxicity (choleostasis)” value is recorded as 4. The “Hepatotoxicity (severe hepatitis)” value in data set [10] came to 1. For the same molecule, the “Hepatotoxicity (chronic liver disease)” value in data set [11] turned out to be 0. Further, the “Hepatotoxicity (cirrhosis)” value in data set [12] was found to be 0. Besides, the “Hepatotoxicity (granulomatous hepatitis)” value in [13] was 0. Moreover, the “Hepatotoxicity (association with vascular disease)” value in data set [14] is 0. Moreover, the “Hepatotoxicity (steatosis)” value in data set [15] is listed as 1. Besides, in data set [16], the “Hepatotoxicity (malignant tumour)” value is 0. For the same molecule, the “Hepatotoxicity (benign tumour)” value in data set [17] is 0.
For the molecule `CC(NC(C)(C)C)C(=O)c1cccc(Cl)c1` (stereo not drawn) [BUPROPION], the “Hepatotoxicity (moderate)” value was determined as 0% in data set [1] (Liver) and 1 in data set [6]. Besides, the “Hepatotoxicity (acute)” value is recorded as 0% in data set [2] (Liver) and 4 in data set [7]. The “Hepatotoxicity (successful reintroduction)” value in data set [3] is reported as “yes”. In [4], the “Hepatotoxicity (comment)” value was “PERICHOLANGITE”. Further, the “Hepatotoxicity (time to onset)” value in data set [5] is recorded as 4 days - 80 days. Moreover, the “Hepatotoxicity (cytolytic)” value in [8] is given as 4. Also, the “Hepatotoxicity (choleostasis)” value in data set [9] was 2. The “Hepatotoxicity (severe hepatitis)” value in [10] (Liver) stood at 1. Besides, in data set [11], the “Hepatotoxicity (chronic liver disease)” value is 0. Also, the “Hepatotoxicity (cirrhosis)” value in [12] stood at 0. Besides, the “Hepatotoxicity (granulomatous hepatitis)” value in [13] worked out at 0. Moreover, the “Hepatotoxicity (association with vascular disease)” value in [14] was determined as 0. The “Hepatotoxicity (steatosis)” value in [15] was found to be 0. Also, in data set [16], the “Hepatotoxicity (malignant tumour)” value was found to be 0. For the same molecule, the “Hepatotoxicity (benign tumour)” value in data set [17] came out at 0.
